Data on seven compounds can be found in patent US4132731A, “Novel iodized isophthalamic acid compounds” (Schering Aktiengesellschaft, priority 1976, dated 1979).

The nature of data set [1]: general compatibility (LD50 i.v.) in rats. To be noted: rat, in vivo, iv.
A further data set deals with rats. The data set can be described thus: neural compatibility: intracerebral compatibility / Valzelli value (ED50) in rats. The conditions noted are these: aqueous meglumine salt solutions, confidence range p 0.05.
Setting [2] is: rats, aqueous meglumine salt solutions.

Usually LD50 stands for the dose at which mortality reaches 50%. In data set [1], `CC(=O)Nc1c(I)c(C(=O)O)c(I)c(C(=O)NCCO)c1I` [Compound 1, ioxithalamic acid, reference compound] registered an LD50 of 15200 mg/kg. The “Valzelli Value (ED50) and Confidence Range” value with rats is 12.3 (10.3-14.4) mg. I/kg.
`COCC(=O)Nc1c(I)c(C(=O)O)c(I)c(C(=O)NC(C)(C)CO)c1I` [Compound 2, N-(2-hydroxy-1,1-dimethylethyl)-2,4,6-triiodo-5-methoxyacetamidoisophthalamic acid]: the LD50 in data set [1] (setting [2]) came to 20000 mg/kg. Moreover, the “Valzelli Value (ED50) and Confidence Range” value with rats is 71.4 (61.4-99.9) mg. I/kg.
For the compound `COCC(=O)Nc1c(I)c(C(=O)O)c(I)c(C(=O)NCC(C)O)c1I` (centres unmarked) [Compound 3, N-(2-Hydroxypropyl)-2,4,6-triiodo-5-methoxyacetamidoisophthalamic Acid], the LD50 in data set [1] (setting [2]) came out at 19000 mg/kg. Further, the “Valzelli Value (ED50) and Confidence Range” value in the data set on rats is 44.6 (35.5-52.2) mg. I/kg.
On to `COCC(=O)Nc1c(I)c(C(=O)O)c(I)c(C(=O)NCCCO)c1I` [Compound 4, N-(3-Hydroxypropyl)-2,4,6-triiodo-5-methoxyacetamidoisophthalamic Acid], for which the median lethal dose (LD50) in data set [1] (setting [2]) was 16300 mg/kg. Also, the “Valzelli Value (ED50) and Confidence Range” value with rats is listed as 43.1 (32.6-50.9) mg. I/kg.
For `COCC(=O)Nc1c(I)c(C(=O)O)c(I)c(C(=O)NCCO)c1I` [Compound 5, N-(2-Hydroxyethyl)-2,4,6-triiodo-5-methoxyacetamidoisophthalamic Acid] the same measures were more than 18600 mg/kg and 44.9 (36.7-51,8) mg. I/kg.
`COCC(=O)Nc1c(I)c(C(=O)O)c(I)c(C(=O)NC(C)(C)CCO)c1I` [Compound 6, N-(3-hydroxy-1,1-dimethylpropyl)-2,4,6-triiodo-5-methoxyacetamidoisophthalamic acid]: the LD50 in data set [1] (setting [2]) is 18400 mg/kg. For the same compound, the “Valzelli Value (ED50) and Confidence Range” value with rats is on record as 67.2 (58.7-84.8) mg. I/kg.
On to `CC(=O)Nc1c(I)c(C(=O)O)c(I)c(C(=O)NCC(C)O)c1I` (centres unmarked) [Compound 7], for which, in data set [1], the LD50 amounted to 18200 mg/kg. The “Valzelli Value (ED50) and Confidence Range” value in the data set with rats was 50.7 (44.3-56.6) mg. I/kg.
